Experimental data: the supplement of paper PMC11451515

Tested on: P12-Ichikawa
Experiment: cell viability relative to DMSO control; higher = less cytotoxic
Conditions: 48 h
In short: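 Cells were incubated for 48 h at 37°C before CellTiter-Glo One luminescence was read. The cells were NOMO1 or SEM (500 cells/well) or P12-Ichikawa (1000 cells/well) leukemia cells, adapted for at least four passages in each medium and seeded in 1536-well plates (5 μl). Dosing used library compounds in DMSO applied by pin over 11 threefold points, 47 μM to 0.79 nM. Viability is the per-plate percentage of DMSO wells, with cell-free wells as background.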

[1] = HPLM + 10% dialyzed FBS, 0.000781 µM
[2] = HPLM + 10% dialyzed FBS, 0.00234 µM
[3] = HPLM + 10% dialyzed FBS, 0.00702 µM
[4] = HPLM + 10% dialyzed FBS, 0.0211 µM
[5] = HPLM + 10% dialyzed FBS, 0.0632 µM
[6] = HPLM + 10% dialyzed FBS, 0.19 µM
[7] = HPLM + 10% dialyzed FBS, 0.569 µM
[8] = HPLM + 10% dialyzed FBS, 1.71 µM
[9] = HPLM + 10% dialyzed FBS, 5.12 µM
[10] = HPLM + 10% dialyzed FBS, 15.4 µM
[11] = HPLM + 10% dialyzed FBS, 46.1 µM
[12] = RPMI 5 mM glucose + 10% FBS, 0.000781 µM
[13] = RPMI 5 mM glucose + 10% FBS, 0.00234 µM
[14] = RPMI 5 mM glucose + 10% FBS, 0.00702 µM
[15] = RPMI 5 mM glucose + 10% FBS, 0.0211 µM
[16] = RPMI 5 mM glucose + 10% FBS, 0.0632 µM
[17] = RPMI 5 mM glucose + 10% FBS, 0.19 µM
[18] = RPMI 5 mM glucose + 10% FBS, 0.569 µM
[19] = RPMI 5 mM glucose + 10% FBS, 1.71 µM
[20] = RPMI 5 mM glucose + 10% FBS, 5.12 µM
[21] = RPMI 5 mM glucose + 10% FBS, 15.4 µM
[22] = RPMI 5 mM glucose + 10% FBS, 46.1 µM
[23] = RPMI 5 mM glucose + 10% dialyzed FBS, 0.000781 µM
[24] = RPMI 5 mM glucose + 10% dialyzed FBS, 0.00234 µM
[25] = RPMI 5 mM glucose + 10% dialyzed FBS, 0.00702 µM
[26] = RPMI 5 mM glucose + 10% dialyzed FBS, 0.0211 µM
[27] = RPMI 5 mM glucose + 10% dialyzed FBS, 0.0632 µM
[28] = RPMI 5 mM glucose + 10% dialyzed FBS, 0.19 µM
[29] = RPMI 5 mM glucose + 10% dialyzed FBS, 0.569 µM
[30] = RPMI 5 mM glucose + 10% dialyzed FBS, 1.71 µM
[31] = RPMI 5 mM glucose + 10% dialyzed FBS, 5.12 µM
[32] = RPMI 5 mM glucose + 10% dialyzed FBS, 15.4 µM
[33] = RPMI 5 mM glucose + 10% dialyzed FBS, 46.1 µM

Row | SMILES | cell viability [1] | cell viability [2] | cell viability [3] | cell viability [4] | cell viability [5] | cell viability [6] | cell viability [7] | cell viability [8] | cell viability [9] | cell viability [10] | cell viability [11] | cell viability [12] | cell viability [13] | cell viability [14] | cell viability [15] | cell viability [16] | cell viability [17] | cell viability [18] | cell viability [19] | cell viability [20] | cell viability [21] | cell viability [22] | cell viability [23] | cell viability [24] | cell viability [25] | cell viability [26] | cell viability [27] | cell viability [28] | cell viability [29] | cell viability [30] | cell viability [31] | cell viability [32] | cell viability [33]
1 | CN(C)CCc1c[nH]c2ccc(Cn3cncn3)cc12 | 96.3% | 95% | 107% | 101% | 107% | 97% | 101% | 22.8% | 6.71% | 7.05% | 6.29% | 92% | 101% | 91.4% | 105% | 105% | 69.3% | 91.1% | 30.9% | 8.08% | 6.52% | 4.97% | 93.7% | 89.5% | 88.3% | 92.4% | 97.3% | 68.3% | 76.5% | 22.3% | 7.34% | 6.02% | 5.62%
2 | COc1cccc(OC)c1-c1cc(C(=O)NC2(C(=O)O)C3CC4CC(C3)CC2C4)nn1-c1ccnc2cc(Cl)ccc12 (stereo not given) | 115% | 118% | 112% | 116% | 114% | 109% | 114% | 113% | 101% | 94.7% | 86.1% | 113% | 119% | 126% | 118% | 119% | 99.4% | 126% | 110% | 115% | 112% | 97.5% | 113% | 118% | 119% | 114% | 117% | 110% | 101% | 110% | 107% | 108% | 99.9%
3 | C=C1CCC2[C@](C)(CO)C(O)CC[C@]2(C)C1C/C=C1/C(=O)OCC1O (stereo not given in full) | 122% | 124% | 122% | 114% | 121% | 117% | 104% | 103% | 106% | 114% | 115% | 115% | 112% | 118% | 106% | 114% | 110% | 108% | 109% | 107% | 98.6% | 107% | 120% | 115% | 124% | 115% | 116% | 111% | 109% | 103% | 98.7% | 110% | 106%
4 | CCC(=O)NC[C@H](Cc1ccc(OCCc2nc(-c3ccccc3)oc2C)cc1)N/C(C)=C\C(=O)c1ccc(C(F)(F)F)cc1 | 102% | 97.6% | 93.8% | 104% | 109% | 106% | 91.1% | 99.1% | 76% | 35% | 8.82% | 95.8% | 98% | 103% | 112% | 106% | 110% | 77.7% | 105% | 66.7% | 50.4% | 7.18% | 98.3% | 99.4% | 100% | 104% | 99.3% | 99.7% | 83.6% | 86.8% | 62.1% | 53.3% | 11.8%
5 | Cc1cccc(-c2[nH]c(C(C)(C)C)nc2-c2ccc3nccnc3c2)n1 | 120% | 124% | 124% | 126% | 125% | 120% | 118% | 110% | 112% | 112% | 48% | 122% | 122% | 115% | 116% | 124% | 121% | 108% | 119% | 106% | 106% | 81.4% | – | – | – | – | – | – | – | – | – | – | –
6 | CCN(CC)CCCC(C)Nc1ccnc2cc(Cl)ccc12 (stereo not given) | 105% | 110% | 112% | 117% | 119% | 121% | 113% | 109% | 101% | 27.5% | 21% | 105% | 114% | 108% | 102% | 111% | 112% | 107% | 103% | 101% | 21.4% | 20.7% | 107% | 109% | 106% | 109% | 106% | 101% | 117% | 110% | 98.2% | 27.7% | 22%
7 | CC(O)(C[S+](=O)([O-])c1ccc(F)cc1)C(=O)Nc1ccc(C#N)c(C(F)(F)F)c1 (stereo not given) | 94.8% | 85.9% | 97.2% | 96.8% | 93.7% | 100% | 102% | 101% | 95.6% | 102% | 69.9% | 84.6% | 92.9% | 92.3% | 93.9% | 94.5% | 91.1% | 93.2% | 98.9% | 90.3% | 88.9% | 52.7% | 78.3% | 85.5% | 90.9% | 90.3% | 95.9% | 86.2% | 98.2% | 96.2% | 90.4% | 74% | 49.4%
